Experiments:
[1] = molecular target: T1, 5-hydroxytryptamine receptor 2A (Homo sapiens, UniProt P28223); format: functional, cell-based
[2] = molecular target: T1, 5-hydroxytryptamine receptor 2A; format: functional, cell-based; remark: listed apart in the source
Cannabinoid receptor 1 = Cannabinoid receptor 1 (Homo sapiens, UniProt P21554)
[3] = molecular target: Beta-1 adrenergic receptor (Homo sapiens, UniProt P08588); format: functional
Glucocorticoid receptor = molecular target: T2, Glucocorticoid receptor (Homo sapiens, UniProt P04150)
T2 sequence (P04150 whole entry): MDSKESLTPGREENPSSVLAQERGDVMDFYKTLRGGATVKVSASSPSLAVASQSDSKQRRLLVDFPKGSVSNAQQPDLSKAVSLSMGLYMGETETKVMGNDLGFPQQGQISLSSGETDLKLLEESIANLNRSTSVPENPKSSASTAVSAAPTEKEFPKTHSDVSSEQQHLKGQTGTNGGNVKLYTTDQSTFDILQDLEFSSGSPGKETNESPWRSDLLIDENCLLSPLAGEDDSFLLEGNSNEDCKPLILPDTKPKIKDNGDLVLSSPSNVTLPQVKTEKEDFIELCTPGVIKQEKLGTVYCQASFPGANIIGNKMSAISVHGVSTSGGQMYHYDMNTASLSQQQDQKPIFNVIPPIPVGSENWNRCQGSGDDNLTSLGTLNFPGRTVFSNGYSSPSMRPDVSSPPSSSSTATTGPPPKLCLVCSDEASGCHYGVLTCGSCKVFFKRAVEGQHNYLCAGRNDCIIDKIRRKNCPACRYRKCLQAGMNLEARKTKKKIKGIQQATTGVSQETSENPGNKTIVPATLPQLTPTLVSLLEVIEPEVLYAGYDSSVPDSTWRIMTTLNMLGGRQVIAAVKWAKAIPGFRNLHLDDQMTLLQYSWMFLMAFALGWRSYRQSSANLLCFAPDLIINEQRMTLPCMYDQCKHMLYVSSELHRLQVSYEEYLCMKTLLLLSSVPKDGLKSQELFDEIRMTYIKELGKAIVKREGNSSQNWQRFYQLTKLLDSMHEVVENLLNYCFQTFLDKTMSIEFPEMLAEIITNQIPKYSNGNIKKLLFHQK

Melanocortin receptor 4 = Melanocortin receptor 4 (Homo sapiens, UniProt P32245)
Melanocortin receptor 4, sequence (P32245 whole entry): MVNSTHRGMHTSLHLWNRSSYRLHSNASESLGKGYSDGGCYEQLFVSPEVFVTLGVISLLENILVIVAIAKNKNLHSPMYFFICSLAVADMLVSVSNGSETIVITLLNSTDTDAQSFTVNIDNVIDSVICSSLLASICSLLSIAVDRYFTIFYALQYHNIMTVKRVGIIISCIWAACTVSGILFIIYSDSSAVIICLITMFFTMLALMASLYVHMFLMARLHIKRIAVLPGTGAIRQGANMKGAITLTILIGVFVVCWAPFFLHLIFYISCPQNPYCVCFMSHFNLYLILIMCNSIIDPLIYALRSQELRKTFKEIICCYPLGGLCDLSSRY

[4] = molecular target: T3, Alpha-1A adrenergic receptor (Homo sapiens, UniProt P35348); format: functional, cell-based
T3 sequence (P35348 whole entry): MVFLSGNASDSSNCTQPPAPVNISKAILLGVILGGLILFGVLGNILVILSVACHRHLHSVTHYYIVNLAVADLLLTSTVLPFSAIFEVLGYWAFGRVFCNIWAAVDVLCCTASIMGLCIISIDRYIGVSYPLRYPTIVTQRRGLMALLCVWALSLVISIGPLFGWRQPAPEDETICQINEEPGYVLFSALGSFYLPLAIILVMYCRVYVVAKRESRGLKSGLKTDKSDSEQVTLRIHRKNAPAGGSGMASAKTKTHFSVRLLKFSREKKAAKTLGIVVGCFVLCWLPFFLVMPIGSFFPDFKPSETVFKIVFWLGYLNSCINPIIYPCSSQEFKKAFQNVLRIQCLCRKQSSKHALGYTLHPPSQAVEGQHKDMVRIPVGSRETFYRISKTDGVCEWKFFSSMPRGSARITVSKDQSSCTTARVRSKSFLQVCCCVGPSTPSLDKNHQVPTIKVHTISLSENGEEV

[5] = molecular target: T4, Muscarinic acetylcholine receptor M2 (Homo sapiens, UniProt P08172)
T4 sequence (P08172 whole entry): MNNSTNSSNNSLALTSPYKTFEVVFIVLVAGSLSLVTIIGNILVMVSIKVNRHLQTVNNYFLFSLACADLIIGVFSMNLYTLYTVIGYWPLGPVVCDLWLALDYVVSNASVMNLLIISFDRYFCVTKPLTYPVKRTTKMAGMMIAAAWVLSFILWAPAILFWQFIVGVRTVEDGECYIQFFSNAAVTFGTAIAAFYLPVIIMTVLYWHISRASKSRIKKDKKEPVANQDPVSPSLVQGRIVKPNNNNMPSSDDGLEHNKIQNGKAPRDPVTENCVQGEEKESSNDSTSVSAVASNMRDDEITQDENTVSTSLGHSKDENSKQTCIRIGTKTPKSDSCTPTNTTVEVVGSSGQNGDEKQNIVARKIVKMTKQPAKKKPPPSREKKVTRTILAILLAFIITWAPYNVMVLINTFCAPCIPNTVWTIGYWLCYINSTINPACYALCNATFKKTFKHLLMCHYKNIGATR

[6] = molecular target: T3, Alpha-1A adrenergic receptor; format: functional, cell-based; remark: listed apart in the source
[7] = molecular target: Sodium-dependent noradrenaline transporter (Homo sapiens, UniProt P23975)
Sodium-dependent noradrenaline transporter, sequence (P23975 whole entry): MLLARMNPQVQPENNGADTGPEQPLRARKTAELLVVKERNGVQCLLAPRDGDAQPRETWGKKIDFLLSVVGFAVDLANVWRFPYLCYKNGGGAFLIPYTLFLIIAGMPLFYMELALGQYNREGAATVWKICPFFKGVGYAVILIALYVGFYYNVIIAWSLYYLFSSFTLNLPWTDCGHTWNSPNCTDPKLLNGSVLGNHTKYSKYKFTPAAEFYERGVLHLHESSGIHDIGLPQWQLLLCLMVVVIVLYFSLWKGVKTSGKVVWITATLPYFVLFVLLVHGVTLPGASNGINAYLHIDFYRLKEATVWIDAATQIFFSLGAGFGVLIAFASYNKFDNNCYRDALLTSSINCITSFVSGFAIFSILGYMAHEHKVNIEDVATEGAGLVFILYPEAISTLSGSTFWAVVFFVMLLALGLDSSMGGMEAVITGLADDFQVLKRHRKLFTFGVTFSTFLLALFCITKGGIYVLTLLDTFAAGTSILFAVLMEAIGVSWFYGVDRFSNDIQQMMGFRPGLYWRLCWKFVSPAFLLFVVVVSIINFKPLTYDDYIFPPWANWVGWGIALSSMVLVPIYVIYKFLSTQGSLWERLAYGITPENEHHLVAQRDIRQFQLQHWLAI

[8] = molecular target: T5, Alpha-2A adrenergic receptor (Homo sapiens, UniProt P08913)
T5 sequence (P08913 whole entry): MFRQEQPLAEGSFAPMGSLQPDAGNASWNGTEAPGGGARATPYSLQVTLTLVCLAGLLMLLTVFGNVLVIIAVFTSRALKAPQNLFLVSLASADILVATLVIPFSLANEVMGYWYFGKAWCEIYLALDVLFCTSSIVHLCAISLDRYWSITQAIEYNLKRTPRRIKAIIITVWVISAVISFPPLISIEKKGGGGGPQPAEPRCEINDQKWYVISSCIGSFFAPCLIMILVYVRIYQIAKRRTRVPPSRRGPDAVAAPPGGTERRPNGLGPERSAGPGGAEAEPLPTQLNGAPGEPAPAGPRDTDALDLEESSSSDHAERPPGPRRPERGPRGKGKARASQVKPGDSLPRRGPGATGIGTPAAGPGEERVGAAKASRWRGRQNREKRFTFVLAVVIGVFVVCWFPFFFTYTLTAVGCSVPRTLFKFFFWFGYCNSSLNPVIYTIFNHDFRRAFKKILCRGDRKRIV

Thromboxane A2 receptor = molecular target: T6, Thromboxane A2 receptor (Homo sapiens, UniProt P21731); format: functional, cell-based
T6 sequence (P21731 whole entry): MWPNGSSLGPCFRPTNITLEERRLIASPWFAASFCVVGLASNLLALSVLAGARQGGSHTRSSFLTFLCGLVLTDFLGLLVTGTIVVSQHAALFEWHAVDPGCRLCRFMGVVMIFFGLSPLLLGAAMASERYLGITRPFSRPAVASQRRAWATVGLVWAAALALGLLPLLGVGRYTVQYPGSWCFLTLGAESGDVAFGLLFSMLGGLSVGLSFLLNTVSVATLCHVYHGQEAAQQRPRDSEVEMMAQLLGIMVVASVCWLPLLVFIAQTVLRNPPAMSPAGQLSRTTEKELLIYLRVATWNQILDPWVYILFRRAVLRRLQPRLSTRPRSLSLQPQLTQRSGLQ
Note: assay procedure not described here.

Beta-1 adrenergic receptor, sequence (P08588 whole entry): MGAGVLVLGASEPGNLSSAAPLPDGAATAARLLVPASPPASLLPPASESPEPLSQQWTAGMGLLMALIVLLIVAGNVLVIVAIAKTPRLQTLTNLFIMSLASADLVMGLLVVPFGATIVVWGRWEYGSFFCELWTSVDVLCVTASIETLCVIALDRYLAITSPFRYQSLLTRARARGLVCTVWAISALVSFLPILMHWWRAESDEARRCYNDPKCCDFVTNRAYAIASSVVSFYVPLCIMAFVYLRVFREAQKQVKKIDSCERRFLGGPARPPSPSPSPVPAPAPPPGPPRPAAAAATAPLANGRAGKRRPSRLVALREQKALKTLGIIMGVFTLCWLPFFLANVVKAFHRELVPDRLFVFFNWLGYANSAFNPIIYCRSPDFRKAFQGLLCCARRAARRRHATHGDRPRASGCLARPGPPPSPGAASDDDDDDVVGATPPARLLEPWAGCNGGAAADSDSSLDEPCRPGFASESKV
Cannabinoid receptor 1, sequence (P21554 whole entry): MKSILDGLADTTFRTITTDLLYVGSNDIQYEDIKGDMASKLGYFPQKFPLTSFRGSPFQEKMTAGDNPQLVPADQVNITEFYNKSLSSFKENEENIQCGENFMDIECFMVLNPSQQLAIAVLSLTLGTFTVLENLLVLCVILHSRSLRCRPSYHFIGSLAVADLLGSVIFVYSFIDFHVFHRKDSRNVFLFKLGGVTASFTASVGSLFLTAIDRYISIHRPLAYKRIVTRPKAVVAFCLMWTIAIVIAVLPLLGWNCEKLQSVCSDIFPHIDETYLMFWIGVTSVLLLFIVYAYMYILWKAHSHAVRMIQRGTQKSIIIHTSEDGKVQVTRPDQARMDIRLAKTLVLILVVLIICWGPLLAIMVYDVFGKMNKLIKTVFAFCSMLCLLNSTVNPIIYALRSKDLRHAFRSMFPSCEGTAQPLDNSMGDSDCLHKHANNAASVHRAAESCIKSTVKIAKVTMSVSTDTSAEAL
T1 sequence (P28223 whole entry): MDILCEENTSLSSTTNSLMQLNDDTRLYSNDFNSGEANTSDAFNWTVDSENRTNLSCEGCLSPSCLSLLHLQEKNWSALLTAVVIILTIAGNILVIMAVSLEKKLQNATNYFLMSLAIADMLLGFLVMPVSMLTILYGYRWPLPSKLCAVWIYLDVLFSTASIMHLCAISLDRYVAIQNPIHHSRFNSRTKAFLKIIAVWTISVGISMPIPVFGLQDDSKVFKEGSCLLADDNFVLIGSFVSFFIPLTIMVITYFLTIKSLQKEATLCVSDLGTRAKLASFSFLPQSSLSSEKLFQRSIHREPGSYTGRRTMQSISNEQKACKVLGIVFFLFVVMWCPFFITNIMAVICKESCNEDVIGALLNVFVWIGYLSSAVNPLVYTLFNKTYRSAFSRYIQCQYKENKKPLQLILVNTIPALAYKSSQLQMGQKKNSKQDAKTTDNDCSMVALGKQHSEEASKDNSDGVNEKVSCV

CC(C)C[C@H](NC(=O)[C@H](Cc1ccccc1)NC(=O)c1cnccn1)B(O)O [BORTEZOMIB]
AC50 [1]: > 30 µM | AC50 [2]: > 30 µM | AC50 (Cannabinoid receptor 1): > 30 µM | AC50 [3]: > 30 µM | AC50 (Glucocorticoid receptor): > 30 µM | AC50 (Melanocortin receptor 4): > 30 µM

CCN(CC)CCn1c(=O)c(Cc2ccc(OC)cc2)nc2ccccc21 [CAROVERINE]
AC50 [1]: 9.7 µM | AC50 [2]: > 30 µM | AC50 (Cannabinoid receptor 1): > 30 µM | AC50 [3]: > 30 µM | AC50 [4]: > 30 µM | AC50 (Glucocorticoid receptor): > 30 µM | AC50 (Melanocortin receptor 4): > 30 µM

OCCOCCN1CCN(C(c2ccccc2)c2ccc(Cl)cc2)CC1 (centres undefined) [HYDROXYZINE]
AC50 [1]: 6 µM | AC50 [2]: > 30 µM | AC50 (Cannabinoid receptor 1): > 10 µM | AC50 [3]: > 10 µM | AC50 [4]: 9.67 µM | AC50 (Melanocortin receptor 4): > 30 µM

CNC1(C)C2CCC(C2)C1(C)C (centres undefined) [MECAMYLAMINE]
AC50 [1]: > 10 µM | AC50 [2]: > 10 µM | AC50 (Cannabinoid receptor 1): > 10 µM | AC50 [3]: > 10 µM | AC50 (Glucocorticoid receptor): > 10 µM | AC50 (Melanocortin receptor 4): > 10 µM

CC(=O)SCC(Cc1ccccc1)C(=O)NCC(=O)OCc1ccccc1 (centres undefined) [RACECADOTRIL]
AC50 [1]: > 30 µM | AC50 [2]: > 30 µM | AC50 (Cannabinoid receptor 1): > 10 µM | AC50 [3]: > 30 µM | AC50 (Glucocorticoid receptor): > 30 µM | AC50 (Melanocortin receptor 4): > 30 µM

C[C@H](Cn1cnc2c(N)ncnc21)OCP(=O)(O)O [TENOFOVIR ANHYDROUS]
AC50 [1]: > 30 µM | AC50 [2]: > 30 µM | AC50 (Cannabinoid receptor 1): > 30 µM | AC50 [3]: > 30 µM | AC50 [4]: > 30 µM | AC50 (Glucocorticoid receptor): > 30 µM | AC50 (Melanocortin receptor 4): > 30 µM

CN(C)CCN(Cc1ccccc1)c1ccccn1 [TRIPELENNAMINE]
AC50 [5]: 4.72 µM | AC50 [1]: 7.3 µM | AC50 [6]: > 30 µM | AC50 [2]: > 10 µM | AC50 [7]: 2.62 µM | AC50 (Cannabinoid receptor 1): > 10 µM | AC50 [3]: > 30 µM | AC50 [8]: 3.08 µM | AC50 (Glucocorticoid receptor): > 10 µM | AC50 (Melanocortin receptor 4): > 10 µM | AC50 (Thromboxane A2 receptor): > 30 µM

Reference: ChEMBL document CHEMBL5291721, “A preclinical secondary pharmacology resource illuminates target-adverse drug reaction associations of marketed drugs” (Nat Commun, 2023)
